Laboratory results published in ChEMBL document CHEMBL4152333, “Structure-activity relationships in fungal nucleobases transporters as dissected by the inhibitory effects of novel purine analogues” (Eur J Med Chem, 2018).
Activity calls are given as the source filed them. No cut-off for these calls is given here.

Experiments:
[1] = biological target: Uric acid-xanthine permease (Emericella nidulans (strain FGSC A4 / ATCC 38163 / CBS 112.46 / NRRL194 / M139) (Aspergillus nidulans)) (UniProt Q07307); experiment: Inhibition of fungal UapA expressed in Aspergillus nidulans assessed as reduction in UapA-mediated [8-3H]-xanthine accumulation at 0.5 mM; details: Fungi
Fungi [2] = experiment: Inhibition of fungal FcyB expressed in Aspergillus nidulans assessed as reduction in FcyB-mediated at 0.5 mM
[3] = Inhibition of fungal FcyB expressed in Aspergillus nidulans assessed as reduction in FcyB-mediated [2,8-3H]-adenine accumulation; set-up: species or system Fungi
[4] = biological target: T1, Uncharacterized protein (Emericella nidulans (strain FGSC A4 / ATCC 38163 / CBS 112.46 / NRRL194 / M139) (Aspergillus nidulans)) (UniProt G5EB00); experiment: Inhibition of fungal AzgA expressed in Aspergillus nidulans assessed as reduction in AzgA-mediated [2,8-3H]-adenine accumulation at 0.5 mM; details: Fungi
T1 sequence (whole entry): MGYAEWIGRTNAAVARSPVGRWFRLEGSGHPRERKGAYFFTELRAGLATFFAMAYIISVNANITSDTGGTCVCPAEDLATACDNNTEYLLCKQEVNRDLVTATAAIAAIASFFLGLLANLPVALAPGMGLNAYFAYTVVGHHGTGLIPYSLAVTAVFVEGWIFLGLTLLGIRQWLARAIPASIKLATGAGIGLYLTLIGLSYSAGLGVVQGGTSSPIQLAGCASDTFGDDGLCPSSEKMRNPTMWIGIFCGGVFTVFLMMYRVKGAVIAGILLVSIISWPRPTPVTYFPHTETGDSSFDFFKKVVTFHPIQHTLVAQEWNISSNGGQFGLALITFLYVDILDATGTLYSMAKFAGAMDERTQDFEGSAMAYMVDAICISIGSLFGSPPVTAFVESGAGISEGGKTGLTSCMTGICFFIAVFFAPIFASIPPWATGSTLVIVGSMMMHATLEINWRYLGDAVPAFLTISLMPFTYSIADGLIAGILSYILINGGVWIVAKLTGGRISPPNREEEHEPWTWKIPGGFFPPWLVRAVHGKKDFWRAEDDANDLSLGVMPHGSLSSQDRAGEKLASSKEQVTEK

Uncharacterized protein = biological target: T2, Uncharacterized protein (Emericella nidulans (strain FGSC A4 / ATCC 38163 / CBS 112.46 / NRRL194 / M139) (Aspergillus nidulans), UniProt G5EB00); experiment: Inhibition of fungal AzgA expressed in Aspergillus nidulans assessed as reduction in AzgA-mediated [2,8-3H]-adenine accumulation; set-up: species or system Fungi
T2 sequence (G5EB00 whole entry): T1 sequence (whole entry)

Fungi [5] = experiment: Inhibition of fungal FcyB expressed in Aspergillus nidulans assessed as FcyB-mediated [2,8-3H]-adenine accumulation rate at 500 uM relative to untreated control; set-up: scale not given: the % may be the effect or the level left

Sequence of Uric acid-xanthine permease (Emericella nidulans (strain FGSC A4 / ATCC 38163 / CBS 112.46 / NRRL194 / M139) (Aspergillus nidulans)) (Q07307 whole entry, looked up): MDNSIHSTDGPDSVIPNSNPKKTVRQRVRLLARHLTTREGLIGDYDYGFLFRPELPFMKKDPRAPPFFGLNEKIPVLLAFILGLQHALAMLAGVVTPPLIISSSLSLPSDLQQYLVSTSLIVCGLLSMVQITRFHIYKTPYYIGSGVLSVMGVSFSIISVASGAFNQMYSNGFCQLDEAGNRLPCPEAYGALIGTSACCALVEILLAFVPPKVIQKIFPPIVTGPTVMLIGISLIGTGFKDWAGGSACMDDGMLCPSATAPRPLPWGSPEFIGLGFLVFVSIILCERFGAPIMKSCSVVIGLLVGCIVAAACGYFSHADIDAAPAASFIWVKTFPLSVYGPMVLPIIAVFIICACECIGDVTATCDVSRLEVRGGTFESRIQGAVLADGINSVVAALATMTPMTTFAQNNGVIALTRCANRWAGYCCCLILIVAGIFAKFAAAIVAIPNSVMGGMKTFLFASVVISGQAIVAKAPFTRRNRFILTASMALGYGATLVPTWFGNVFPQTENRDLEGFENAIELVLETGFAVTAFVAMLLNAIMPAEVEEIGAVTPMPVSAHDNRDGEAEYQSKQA

## COc1ccc(OC)c(-c2nc3c(N)ccnc3n2Cc2ccccc2)c1
[1]
  inhibition: inactive
Fungi [2]
  inhibition: inactive

## CN1CCN(c2nccc3c2ncn3C2CCCC2)CC1
[3]
  Ki: 38 µM

## CN1CCN(c2nccc3c2nc(-c2ccncc2)n3Cc2ccncc2)CC1
[1]
  inhibition: inactive

## Oc1ccccc1-c1nc2c(NCc3ccccc3)nccc2[nH]1
[3]
  Ki: 82 µM
[4]
  inhibition: Active
[1]
  inhibition: inactive
Uncharacterized protein
  Ki: 58 µM
Fungi [5]
  Activity: < 10%

## Nc1ccnc2c1nc(O)n2Cc1ccccc1
[1]
  inhibition: inactive
Fungi [2]
  inhibition: inactive

## O=c1[nH]cnc2nc[nH]c12 [HYPOXANTHINE]
[3]
  Ki: 11 µM

## CN1CCN(c2nccc3[nH]c(-c4ccc([N+](=O)[O-])cc4)nc23)CC1
[3]
  Ki: 106 µM
[4]
  inhibition: Active
[1]
  inhibition: inactive

## CC(C)n1cnc2c(NCc3ccccc3)nccc21
[3]
  Ki: 5 µM

## Nc1[nH]cnc2ncnc1-2 [ADENINE]
[3]
  Ki: 7 µM

## COc1ccc(OC)c(-c2nc3c(NCc4ccccc4)nccc3[nH]2)c1
[3]
  Ki: 42 µM
[4]
  inhibition: Active
[1]
  inhibition: inactive
Fungi [5]
  Activity: < 10%

## COc1ccc(OC)c(-c2nc3c(N4CCN(C)CC4)nccc3[nH]2)c1
[3]
  Ki: 100 µM
[1]
  inhibition: inactive
Fungi [5]
  Activity: < 10%

## CN1CCN(c2nccc3[nH]c(-c4ccncc4)nc23)CC1
[1]
  inhibition: inactive

## Sc1nc2c(NCc3ccccc3)nccc2[nH]1
[1]
  inhibition: inactive

## CN1CCN(c2nccc3[nH]c(-c4ccccc4O)nc23)CC1
[3]
  Ki: 49 µM
[1]
  inhibition: inactive
Fungi [5]
  Activity: < 10%

## CN1CCN(c2nccc3[nH]c(O)nc23)CC1
[3]
  Ki: 19 µM
[1]
  inhibition: inactive
Fungi [5]
  Activity: < 10%

## Nc1ccnc2c1nc(-c1ccccc1O)n2Cc1ccccc1
[1]
  inhibition: inactive
Fungi [2]
  inhibition: inactive

## Nc1ccnc2c1nc(-c1ccc([N+](=O)[O-])cc1)n2Cc1ccccc1
[1]
  inhibition: inactive
Fungi [2]
  inhibition: inactive

## c1ccc(CNc2nccc3[nH]c(-c4ccncc4)nc23)cc1
[3]
  Ki: 72 µM
[4]
  inhibition: Active
[1]
  inhibition: inactive
Fungi [5]
  Activity: < 10%

## Nc1ccnc2c1nc(S)n2Cc1ccccc1
[1]
  inhibition: inactive
Fungi [2]
  inhibition: inactive

## Nc1ccnc2c1nc(-c1ccncc1)n2Cc1ccccc1
[1]
  inhibition: inactive
Fungi [2]
  inhibition: inactive

## O=[N+]([O-])c1ccc(-c2nc3c(NCc4ccccc4)nccc3[nH]2)cc1
[1]
  inhibition: inactive

## CN1CCN(c2nccc3c2nc(-c2ccccc2O)n3Cc2ccccc2O)CC1
[1]
  inhibition: inactive
Fungi [2]
  inhibition: inactive

## CN1CCN(c2nccc3[nH]c(S)nc23)CC1
[1]
  inhibition: inactive

## Oc1nc2c(NCc3ccccc3)nccc2[nH]1
[3]
  Ki: 74 µM
[1]
  inhibition: inactive
